Data reported in patent US4195171A, “Derivatives of an antibiotic XK-62-2 and process for the production thereof” (Abbott Laboratories, priority 1975, dated 1980).
≈ marks a conversion by molar mass, not a printed value. Like-named read-outs stand apart in the source and are kept apart here.

Key:
Assay in all cases: Antibacterial spectrum, MIC by agar dilution method
Assay type in all cases: cell-based
[1] = test system: Pseudomonas aeruginosa KY Z-444; settings: KYZ444, agar dilution, pH 7.2, strain produces 6N-acetyltransferase Type III, read-out: Minimum Inhibitory Concentration
Source text: (§1) XK-62-2, 1-N-[L-(-)-α-hydroxy-γ-aminobutyryl] XK-62-2, Compounds (I-1), (I-2), (II-1) and (II-2) against various Gram-negative and Gram-positive bacteria determined by agar dilution method at pH 7.2.
(§2) ^8 produces 6N-acetyltransferase Type III

[2] = test system: Pseudomonas aeruginosa Z-445; settings: Z445, pH 7.2, strain produces 6N-acetyltransferase Type III, read-out: Minimum Inhibitory Concentration
Source text: as §1, §2

[3] = test system: Pseudomonas aeruginosa KY 8512; settings: KY8512, pH 7.2, strain produces neomycinkanamycin phosphotransferase Type I and Type II, read-out: Minimum Inhibitory Concentration
Source text: as §1
(§3) ^6 produces neomycinkanamycin phosphotransferase Type I and Type II

[4] = test system: Pseudomonas aeruginosa KY 8519
Source text: as §1, §3

Escherichia coli KY 8349 = settings: KY8349, pH 7.2, strain produces neomycinkanamycin phosphotransferase Type I, read-out: Minimum Inhibitory Concentration
Source text: as §1
(§4) ^3 produces neomycinkanamycin phosphotransferase Type I

Escherichia coli KY 8320 = settings: KY8320, pH 7.2, strain produces neomycinkanamycin phosphotransferase Type I, read-out: Minimum Inhibitory Concentration
Source text: as §1, §4

[5] = test system: Pseudomonas aeruginosa KY 8518; settings: KY8518, pH 7.2, strain produces neomycinkanamycin phosphotransferase Type I, read-out: Minimum Inhibitory Concentration
Source text: as §1, §4

Providencia sp. 164 = settings: pH 7.2, strain produces gentamicin acetyltransferase Type II, read-out: Minimum Inhibitory Concentration
Source text: as §1
^9 produces gentamicin acetyltransferase Type II

[6] = test system: Pseudomonas aeruginosa KY 8563; settings: KY8563, agar dilution, pH 7.2, strain produces gentamicin acetyltransferase Type III, read-out: Minimum Inhibitory Concentration
Source text: as §1
^7 produces gentamicin acetyltransferase Type III

[7] = test system: Pseudomonas aeruginosa KY 8510; settings: KY8510, agar dilution, pH 7.2, strain produces kanamycin acetyltransferase, read-out: Minimum Inhibitory Concentration
Source text: as §1
(§5) ^1 produces kanamycin acetyltransferase

[8] = test system: Escherichia coli KY Z-343; settings: KYZ343, pH 7.2, strain produces kanamycin acetyltransferase, read-out: Minimum Inhibitory Concentration
Source text: as §1, §5

[9] = test system: Serratia marcescens POE 1065; settings: POE1065, agar dilution, pH 7.2, strain produces kanamycin acetyltransferase, read-out: Minimum Inhibitory Concentration
Source text: as §1, §5

[10] = test system: Pseudomonas aeruginosa KY 8516; settings: KY8516, agar dilution, pH 7.2, strain produces kanamycin acetyltransferase, read-out: Minimum Inhibitory Concentration
Source text: as §1, §5

[11] = test system: Staphylococcus aureus 209 P; settings: pH 7.2, read-out: Minimum Inhibitory Concentration
Source text: as §1

[12] = test system: Salmonella enteritidis G-14; settings: Salmonella enterica, agar dilution, pH 7.2, read-out: Minimum Inhibitory Concentration
Source text: as §1

[13] = test system: Klebsiella pneumoniae No. 8045; settings: pH 7.2, read-out: Minimum Inhibitory Concentration
Source text: as §1

[14] = test system: Staphylococcus aureus Smith; settings: pH 7.2, read-out: Minimum Inhibitory Concentration
Source text: as §1

[15] = test system: Pseudomonas aeruginosa BMH 1; settings: BMH1, pH 7.2, read-out: Minimum Inhibitory Concentration
Source text: as §1

[16] = test system: Pseudomonas aeruginosa NC-5; settings: NC5, agar dilution, pH 7.2, read-out: Minimum Inhibitory Concentration
Source text: as §1

[17] = test system: Pseudomonas aeruginosa BMH 10; settings: BMH10, pH 7.2, read-out: Minimum Inhibitory Concentration
Source text: as §1

Escherichia coli Juhl = settings: agar dilution, pH 7.2, read-out: Minimum Inhibitory Concentration
Source text: as §1

[18] = test system: Streptococcus faecalis ATCC 10541; settings: Enterococcus faecalis, ATCC10541, pH 7.2, read-out: Minimum Inhibitory Concentration
Source text: as §1

Proteus rettgeri KY 4288 = settings: Providencia rettgeri, KY4288, pH 7.2, read-out: Minimum Inhibitory Concentration
Source text: as §1

[19] = test system: Pseudomonas aeruginosa E-2; settings: E2, agar dilution, pH 7.2, read-out: Minimum Inhibitory Concentration
Source text: as §1

Escherichia coli T-5 = settings: T5, agar dilution, pH 7.2, read-out: Minimum Inhibitory Concentration
Source text: as §1

Proteus mirabilis 1287 = settings: pH 7.2, read-out: Minimum Inhibitory Concentration
Source text: as §1

Proteus morganii KY 4298 = settings: Morganella morganii, KY4298; agar dilution, pH 7.2; read-out: Minimum Inhibitory Concentration
Source text: as §1

[20] = test system: Shigella sonnei ATCC 9290; settings: ATCC9290, pH 7.2, read-out: Minimum Inhibitory Concentration
Source text: as §1

Escherichia coli KY 8321 = settings: KY8321, pH 7.2, strain produces gentamicin adenyltransferase and neomycinkanamycin phosphotransferase Type II, read-out: Minimum Inhibitory Concentration
Source text: as §1
^5 produces gentamicin adenyltransferase and neomycinkanamycin
phosphotransferase Type II

[21] = test system: Pseudomonas aeruginosa KY 8511; settings: KY8511, pH 7.2, strain produces gentamicin acetyltransferase Type I, read-out: Minimum Inhibitory Concentration
Source text: as §1
(§6) ^2 produces gentamicin acetyltransferase Type I

Escherichia coli KY 8348 = settings: KY8348, pH 7.2, strain produces gentamicin acetyltransferase Type I, read-out: Minimum Inhibitory Concentration
Source text: as §1, §6

SMILES | MIC [1] [µg/mL] | MIC [2] [µg/mL] | MIC [3] [µg/mL] | MIC (Escherichia coli KY 8349) [µg/mL] | MIC (Escherichia coli KY 8320) [µg/mL] | MIC [5] [µg/mL] | MIC (Providencia sp. 164) [µg/mL] | MIC [6] [µg/mL] | MIC [7] [µg/mL] | MIC [8] [µg/mL] | MIC [9] [µg/mL] | MIC [10] [µg/mL] | MIC [11] [µg/mL] | MIC [12] [µg/mL] | MIC [13] [µg/mL] | MIC [14] [µg/mL] | MIC [15] [µg/mL] | MIC [16] [µg/mL] | MIC [17] [µg/mL] | MIC (Escherichia coli Juhl) [µg/mL] | also measured
CNCC1CCC(N)C(OC2C(N)CC(NC(=O)C(O)CN)C(OC3OCC(C)(O)C(NC)C3O)C2O)O1 (racemic) [1-N-(DL-α-hydroxy-β-aminopropionyl) XK-62-2, reference compound] | 1.56 (≈ 2.83 µM) | 3.12 (≈ 5.67 µM) | 1.56 (≈ 2.83 µM) | 0.1 (≈ 0.182 µM) | 0.4 (≈ 0.726 µM) | 1.56 (≈ 2.83 µM) | 6.25 (≈ 11.4 µM) | 3.12 (≈ 5.67 µM) | 3.12 (≈ 5.67 µM) | 0.2 (≈ 0.363 µM) | 0.78 (≈ 1.42 µM) | 3.12 (≈ 5.67 µM) | 0.4 (≈ 0.726 µM) | 6.25 (≈ 11.4 µM) | 0.78 (≈ 1.42 µM) | 0.2 (≈ 0.363 µM) | 1.56 (≈ 2.83 µM) | 3.12 (≈ 5.67 µM) | 0.4 (≈ 0.726 µM) | 0.78 (≈ 1.42 µM) | MIC ([4]; KY8519, agar dilution, pH 7.2, strain produces neomycinkanamycin phosphotransferase Type I and Type II, read-out: Minimum Inhibitory Concentration): 6.25 µg/mL (≈ 11.4 µM); MIC [18]: 12.5 µg/mL (≈ 22.7 µM); MIC (Proteus rettgeri KY 4288): 1.56 µg/mL (≈ 2.83 µM); MIC [19]: 3.12 µg/mL (≈ 5.67 µM); MIC (Escherichia coli T-5): 0.78 µg/mL (≈ 1.42 µM); MIC (Proteus mirabilis 1287): 12.5 µg/mL (≈ 22.7 µM); MIC (Proteus morganii KY 4298): 0.78 µg/mL (≈ 1.42 µM); MIC [20]: 0.78 µg/mL (≈ 1.42 µM); MIC (Escherichia coli KY 8321): 0.4 µg/mL (≈ 0.726 µM); MIC [21]: 1.56 µg/mL (≈ 2.83 µM); MIC (Escherichia coli KY 8348): 0.2 µg/mL (≈ 0.363 µM)
CC1(O)COC(OC2C(NC(=O)C(O)CN)CC(N)C(OC3OC(CN)CCC3N)C2O)C(O)C1N (racemic) [Compound I-1, 3"-N, 6'-N-didemethyl-1-N-(DL-α-hydroxy-β-aminopropionyl) XK-62-2] | 1.56 (≈ 2.99 µM) | 6.25 (≈ 12 µM) | 0.78 (≈ 1.49 µM) | 0.4 (≈ 0.765 µM) | 0.78 (≈ 1.49 µM) | 0.78 (≈ 1.49 µM) | 6.25 (≈ 12 µM) | 1.56 (≈ 2.99 µM) | 12.5 (≈ 23.9 µM) | 0.4 (≈ 0.765 µM) | 50 (≈ 95.7 µM) | 50 (≈ 95.7 µM) | 0.2 (≈ 0.383 µM) | 6.25 (≈ 12 µM) | 0.4 (≈ 0.765 µM) | 0.2 (≈ 0.383 µM) | 0.78 (≈ 1.49 µM) | 0.78 (≈ 1.49 µM) | 0.4 (≈ 0.765 µM) | 1.56 (≈ 2.99 µM) | MIC ([4]; KY8519, pH 7.2, read-out: Minimum Inhibitory Concentration): 3.12 µg/mL (≈ 5.97 µM); MIC [18]: 12.5 µg/mL (≈ 23.9 µM); MIC (Proteus rettgeri KY 4288): 0.78 µg/mL (≈ 1.49 µM); MIC [19]: 1.56 µg/mL (≈ 2.99 µM); MIC (Escherichia coli T-5): 1.56 µg/mL (≈ 2.99 µM); MIC (Proteus mirabilis 1287): 12.5 µg/mL (≈ 23.9 µM); MIC (Proteus morganii KY 4298): 1.56 µg/mL (≈ 2.99 µM); MIC [20]: 3.12 µg/mL (≈ 5.97 µM); MIC (Escherichia coli KY 8321): 1.56 µg/mL (≈ 2.99 µM); MIC [21]: 0.78 µg/mL (≈ 1.49 µM); MIC (Escherichia coli KY 8348): 0.4 µg/mL (≈ 0.765 µM)
